Data taken from US20260373226A1, “METHODS AND COMPOSITIONS FOR THE TREATMENT OF NEURODEGENERATIVE DISEASE” (Stealth BioTherapeutics Inc., priority 2022, published 2026).

How the values were obtained:
[1] = SBT-272 level in brain homogenates after ET-1 injection; format: in vivo; conditions: rat hemibrain, 24 hours after final treatment
Source text: FIG. 2B is a schematic showing the experimental design. Dotted lines indicate left and right subsection of hemibrain used for RCR and PK analysis (FIG. 2B). FIG. 2C: individual respiratory control ratios (RCR) per animal (n=8 per group) from the stroke-induced subsection of the right hemisphere. FIG. 2D: SBT-272 level in the brain homogenates from the same hemisphere after ET-1 injection. ET1=endothelin-1, vasoconstrictive peptide (*P<0.05, Kruskal-Wallis followed by Dunn's test).
Improved respiratory control ratio after cerebral ischemia reperfusion. To assess its pharmacodynamic effect on mitochondrial function in the brain, SBT-272 was tested in a rat model of acute ischemia. The mitochondrial effects of SBT-272 were determined using the respiratory control ratio (RCR), the ratio of coupled respiration (supporting oxidative phosphorylation) to respiratory rate in the absence of ADP (“leak” respiration). The high mitochondrial RCR in sham-treated animals (9.0±0.1) confirmed that the mitochondrial were healthy, as the majority of respiration accounted for replenishing cellular ATP levels (FIG. 2C).

[2] = Time-concentration profile in plasma, CSF and brain, rat versus nonhuman primate; format: in vivo; conditions: FIGS. 4A and 4C; equivalent dose levels, single or repeated SC dosing
Description: Pharmacokinetic profile of SBT-272 in rat plasma, CSF, and brain (for FIG. 4A). Briefly, as described elsewhere herein, male Sprague-Dawley (SD) rats were subcutaneously administered a single, 10 mg/kg dose of SBT-272. Plasma, CSF, and brain (microdialysis) samples were obtained at the time points indicated on FIG. 4A and analyzed for SBT-272 concentration by HPLC with tandem mass spectrometry (HPLC-MS/MS).
(§1) Pharmacokinetic profile of SBT-272 in nonhuman primate plasma, CSF, and brain. The objective of this study was to determine the pharmacokinetic profile of SBT-272 in CSF and plasma when delivered by subcutaneous (SC) injection for 10 days to cynomolgus monkeys. SBT-272 solution was administered daily by SC injection for 10 days. The following parameters and endpoints were evaluated in this study: mortality, clinical observations, body weights, pharmacokinetic samples (CSF and plasma), and selected tissue collection. There was no mortality during the study. […] Additional details regarding the experimental protocol are provided below.

[3] = Tolerability in nonhuman primates, 10 daily SC injections; format: in vivo, cynomolgus monkey; conditions: 10 days
Description: as §1
(§2) Test System. Details Regarding the Test System are Provided Below: • Species: Nonhuman primate • Strain/Breed: Cynomolgus monkey • Animal Condition: Non-naïve • Animal Procurement Method: In-house colony • Animal Supplier: Charles River Laboratories • Animal Supplier Location: 531 Boul des Prairies, Laval, QC H7V 1B7, Canada • Animal Origin: Asia • Number of Males: 3 • Age at the Initiation of Dosing: 18 to 60 months • Weight at the Initiation of Dosing: 1.4 to 5.0 kg
• Route of Administration: Subcutaneous injection into the scapular and mid-dorsal areas • Treatment Frequency: Daily • Treatment Duration: 10 days • Method: The first day of dosing is designated as Day 1. Dose formulations are allowed to warm up at ambient temperature for at least 30 minutes prior to dosing, as appropriate. The animals are temporarily restrained for dose administration and are not be sedated. The volume for each dose is administered over 1 (preferred) or 2 (as necessary) separate injections within the designated area. Injection sites are rotated daily (see FIG. 4B). If a designated subcutaneous test site is not available for a given animal on any day, then the next available test site in the rotation should be used for dosing. The injection area is marked as frequently as required to allow appropriate visualization of administration sites. Hair may be clipped or shaved if required to improve visualization of the injection sites. […]

[4] = Phase 1 clinical plasma PK in healthy volunteers; format: in vivo, human
Source text: The primary objective of this study is to evaluate the safety and tolerability of single and multiple ascending doses of SBT-272 administered via subcutaneous injection in healthy volunteers. The secondary objects of this study are to: (a) evaluate the plasma PK of SBT-272 in healthy volunteers following subcutaneous administration of single and multiple ascending doses; and (b) to determine an appropriate dose range for subsequence clinical evaluation.

[5] = Steady state PK in plasma, CSF, brain cortex after 10 daily s.c. doses in nonhuman primates; format: in vivo, cynomolgus monkey
Description: as §1, §2
Study design. The study design is described in Table 9.
• Route of Administration: Subcutaneous injection into the scapular and mid-dorsal areas • Treatment Frequency: Daily • Treatment Duration: 10 days • Method: The first day of dosing is designated as Day 1. Dose formulations are allowed to warm up at ambient temperature for at least 30 minutes prior to dosing, as appropriate. The animals are temporarily restrained for dose administration and are not be sedated. The volume for each dose is administered over 1 (preferred) or 2 (as necessary) separate injections within the designated area. Injection sites are rotated daily (see FIG. 4B). If a designated subcutaneous test site is not available for a given animal on any day, then the next available test site in the rotation should be used for dosing. The injection area is marked as frequently as required to allow appropriate visualization of administration sites. Hair may be clipped or shaved if required to improve visualization of the injection sites. On the last injection occasion for each quadrant, the last site of injection is circled, and the circled site is collected at necropsy.
CSF Sample Processing. CSF samples re processed and stored within 1 hour of collection. Following each CSF collection, the sample is visually inspected, and the appearance is recorded. Samples are maintained on wet ice prior to and after centrifugation. Samples are centrifuged for 5 minutes in a refrigerated centrifuge (set to maintain 4 °C) at 2000 g RCF within 1 hour of collection. The resultant supernatant is collected within 30 minutes (as quickly as possible) of centrifugation and will be visually inspected; the appearance of the supernatant and any traces of blood in the pellet re recorded. Precipitate (if any) is discarded. CSF samples are separated into 2 approximately 100 μL equal aliquots into uniquely labelled low protein binding polypropylene tubes each containing 10 μL of 5% (v/v) phosphoric acid aqueous solution. Any remaining CSF will be transferred into a 3rd low protein binding polypropylene tube containing a volume of 5% (v/v) phosphoric acid solution adjusted to result in a 1:10 ratio of acid solution: CSF. All samples are placed on dry ice and transferred to a freezer set to maintain −70 °C.
Plasma Sample Processing. […]

For `Cc1cc(O)cc(C)c1C[C@H](NC(=O)[C@H](N)CCCNC(=N)N)C(=O)N[C@@H](CCCCN)c1nc(Cc2ccccc2)no1` [SBT-272, (R)-2-amino-N—((S)-1-(((S)-5-amino-1-(3-benzyl-1,2,4-oxadiazol-5-yl)pentyl)amino)-3-(4-hydroxy-2,6-dimethylphenyl)-1-oxopropan-2-yl)-5-guanidinopentanamide], the “brain concentration, dose relation” value [1] was “dose proportional”, the “time-concentration profile in plasma, CSF, and brain, rat versus nonhuman primate” value [2] was “very similar in rat and nonhuman primate” and the “body weight differences related to administration” value ([3]; 5 mg/kg/day SC) was “no differences in body weights”. For the same molecule, the mortality ([3]; 5 mg/kg/day SC) was “no mortality”, the tolerability ([3]; SC injection at 5 mg/kg/day) was “well tolerated” and the “clinical PK versus expectations based on rat and nonhuman primate profiles” value ([4]; Phase 1, healthy volunteers, SC) was “consistent with expectations based on rat and nonhuman primate profiles”. The “clinical PK profile versus non-clinical allometric scaling predictions” value ([4]; healthy subjects, FIG. 7, 40 mg once daily, interim) was “consistent with non-clinical allometric scaling predictions”, the “plasma:CSF ratio” value ([5]; cynomolgus monkey, 5 mg/kg s.c., 10 daily doses) was 6.40 and the “brain:CSF ratio” value ([5]; cynomolgus monkey, brain (cortex), 5 mg/kg s.c., 10 daily doses) was 328. For the same molecule, the Kp ([5]; in vivo, sc, cynomolgus monkey, brain (cortex), 5 mg/kg s.c., 10 daily doses, read-out: brain:plasma ratio) was 51, the “brain drug concentration versus predictions based on rodent studies” value ([5]; nonhuman primate, FIGS. 5A-5B) was “met predictions based on rodent studies” and the “correlation between species in steady state brain concentration at trough” value ([5]; rat and nonhuman primate, repeated SC dosing) was “excellent correlation between species in steady state brain concentration at trough”.
